Key:
[1] = test system: Candida albicans, strain B311; experiment: Antifungal susceptibility testing, microdilution broth, pH 5.4/30° C./YNB; type: cell-based; conditions: B311, 24 hours, Table V (values agree with pH 5.4 assay), read-out: caEC50 24 hours
Procedure: Antifungal Screens were set up initially against Candida albicans, strain B311, and Cryotococcus neoformans, strain L210425. Both pathogens, (originally from the stock culture collection, Medical mycology research center, Washington university-Barnes hospital), were obtained from Dr.Kobayashi, Prof.of infectious diseases, Washington University, St.Louis, Mo.
All cultures are maintained at 30° C. on Sabouraud's dextrose agar slants and subcultured at monthly intervals to fresh medium. All inocula for susceptibility testing are prepared in yeast nitogen base(YNB, Difco) broth.
A loopful of growth from Sabouraud dextrose agar slant is inoculated into 4 ml of YNB broth media and incubated at 30° C. overnight (18-24 hrs) with constant agitation (Gyratory Shaker, New Brunswick Scientific). Prior to setting up susceptibility testing, the organisms are counted in a hemocytometer, and diluted as needed into assay media.
1) (Assay at DH 5.4/30° C. Incubation/YNB Media).
Antifungal assays were carried out initially by a modification of the method published by Jones, et. al; (1), and communicated to Searle by Dr. Kobayashi, Washington University. [R. N. Jones et al, Manual of Clinical Microbiology, 4th ed., (1985)]
The antifungal susceptibility testing consists of a microdilution broth procedure performed in 96 well microtiter plates (Costar, cat#3799). Briefly, test compounds from a 20 mM stock solution in DMSO are diluted into sterile, deionized water (final DMSO concentration not exceeding 1%), to yield 2× the desired concentration (100 uM, 10 uM and 1 uM for an initial screen, or a selected concentration range in serial 2 fold dilutions for EC50 determination). One hundred microliters (100 ul) of each concentration is dispensed into triplicate wells of a 96 well microtiter plate. Appropriate dilutions of a suspension of C.albicans (1×10^6 cells/ml) in 2× YNB is distributed into each of the wells, including growth control wells containing no test compound as well as control wells with 0.5% DMSO. Amphotericin B at 0.05, 1 and 5 ug/ml is included in each assay plate as a positive control. The plates are incubated at 30° C. and cell growth is scored by reading the absorbance at 590 nm on an Elisa plate reader(Dynatech, MR.5000).

[2] = biological target: T1, human NMT (Homo sapiens, UniProt P30419); experiment: NMT enzyme inhibition assay (radiochemical HPLC end-point), human NMT; type: biochemical; conditions: Table V
T1 construct: made in house; host or cells: E. coli
T1 sequence (P30419 1-416 isoform P30419-2): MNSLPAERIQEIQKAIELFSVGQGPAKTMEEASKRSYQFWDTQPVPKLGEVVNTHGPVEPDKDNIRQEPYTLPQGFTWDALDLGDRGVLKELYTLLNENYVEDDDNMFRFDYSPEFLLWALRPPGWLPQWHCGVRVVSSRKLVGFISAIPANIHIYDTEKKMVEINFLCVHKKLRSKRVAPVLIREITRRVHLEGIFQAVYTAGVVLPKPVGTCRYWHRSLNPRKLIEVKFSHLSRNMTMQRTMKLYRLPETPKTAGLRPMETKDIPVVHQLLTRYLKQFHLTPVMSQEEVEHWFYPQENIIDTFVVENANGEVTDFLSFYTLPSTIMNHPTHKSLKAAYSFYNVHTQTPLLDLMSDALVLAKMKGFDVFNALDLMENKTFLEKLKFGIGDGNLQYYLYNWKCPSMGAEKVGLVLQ
Procedure: Recombinant Candida albicans and human NMTs were expressed and purified from E. coli using previously described protocols. [D. A. Towler et al, Proc. Natl. Acad. Sci. USA, 84, 2707-2712 (1987); R. C. Weigand et al, J. Biol. Chem., 267, 8591-8598 (1992); R. J. Duronio et al, Proc. Natl. Acad. Sci. USA, 89, 4129-4133 (1992)] The ability of compounds to inhibit Candida NMT enzymatic activity was assessed using a radiochemical HPLC end-point assay as described previously for Saccharomyces cerevisiae and human NMTs. [D. Towler et al, Proc. Natl. Acad. Sci. USA, 83, 2812-2816 (1986); W. J. Rocque et al, J. Biol. Chem., 268, 9964-9971 (1991)] The donor substrate [^3H]myristoyl-coenzyme A was enzymatically synthesized from [^3H]myristic acid (50 Ci/mmol, Amersham, Arlington Heights, Ill.) and coenzyme A (Fluka Chemical Corp., Ronkonkoma, N.Y.), and purified as described previously. [W. J. Rocque et al, J. Biol. Chem., 268, 9964-9971 (1991)] The peptide acceptor substrate GNAASARR-NH2 was prepared by solid-phase peptide synthesis using the t-Boc amino acid methodology, followed by HF treatment and reverse-phase HPLC purification. Inhibitor stock solutions were prepared at 22 mM in DMSO; the final concentration of DMSO in each assay was 0.5% (v/v). […] The reaction was quenched after 10 minutes at 24° C. by the addition of ice-cold MeOH, and the reaction products were separated and measured using C4 reverse-phase HPLC (Vydac 214TP10415; Separations Group, Hesperia, Calif.) and in-line scintillation counting using a Radiomatic A250 (Packard Instruments, Downers Grove, Ill.) and Ecolite(+) (ICN Biomedical, Costa Mesa, Calif.) as the scintillant. Selectivity was determined by calculating the ratio of the IC50 against human NMT to the IC50 against C. albicans NMT.

[3] = biological target: T2, Candida albicans NMT (Candida albicans, UniProt P30418); experiment: NMT enzyme inhibition assay (radiochemical HPLC end-point), Candida NMT; type: biochemical
T2 construct: made in house; host or cells: E. coli
T2 sequence (P30418 1-451): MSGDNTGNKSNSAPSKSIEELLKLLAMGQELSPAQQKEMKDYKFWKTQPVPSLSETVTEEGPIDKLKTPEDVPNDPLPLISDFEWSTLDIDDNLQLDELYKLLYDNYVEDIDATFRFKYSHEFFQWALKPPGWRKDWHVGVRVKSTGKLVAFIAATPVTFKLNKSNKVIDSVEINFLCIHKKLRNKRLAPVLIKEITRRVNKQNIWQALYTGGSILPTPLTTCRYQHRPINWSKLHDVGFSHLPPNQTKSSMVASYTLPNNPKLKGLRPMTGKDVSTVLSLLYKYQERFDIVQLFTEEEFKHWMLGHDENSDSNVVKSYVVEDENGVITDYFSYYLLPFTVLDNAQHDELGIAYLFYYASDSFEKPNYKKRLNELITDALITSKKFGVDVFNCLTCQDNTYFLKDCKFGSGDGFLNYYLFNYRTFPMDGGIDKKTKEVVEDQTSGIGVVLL
Procedure: Recombinant Candida albicans and human NMTs were expressed and purified from E. coli using previously described protocols. [D. A. Towler et al, Proc. Natl. Acad. Sci. USA, 84, 2707-2712 (1987); R. C. Weigand et al, J. Biol. Chem., 267, 8591-8598 (1992); R. J. Duronio et al, Proc. Natl. Acad. Sci. USA, 89, 4129-4133 (1992)] The ability of compounds to inhibit Candida NMT enzymatic activity was assessed using a radiochemical HPLC end-point assay as described previously for Saccharomyces cerevisiae and human NMTs. [D. Towler et al, Proc. Natl. Acad. Sci. USA, 83, 2812-2816 (1986); W. J. Rocque et al, J. Biol. Chem., 268, 9964-9971 (1991)] The donor substrate [^3H]myristoyl-coenzyme A was enzymatically synthesized from [^3H]myristic acid (50 Ci/mmol, Amersham, Arlington Heights, Ill.) and coenzyme A (Fluka Chemical Corp., Ronkonkoma, N.Y.), and purified as described previously. [W. J. Rocque et al, J. Biol. Chem., 268, 9964-9971 (1991)] The peptide acceptor substrate GNAASARR-NH2 was prepared by solid-phase peptide synthesis using the t-Boc amino acid methodology, followed by HF treatment and reverse-phase HPLC purification. Inhibitor stock solutions were prepared at 22 mM in DMSO; the final concentration of DMSO in each assay was 0.5% (v/v). Inhibition assays were carried out by combining variable amounts of inhibitor or buffer with […] of [^3H]myristoyl-coenzyme A (1 μCi, 9.09 Ci/mmol) and 2.2 nmoles of GNAASARR-NH2 in a total volume of 60 μL of 0.2 M N-[2-hydroxy-ethyl]piperazine-N′-[2-ethanesulfonic acid], pH 7.4, 2 mM DL-dithiothreitol, 0.2 mM ethylene glycol-bis-(β-aminoethyl ether) N,N,N′,N′-tetraacetic acid, and initiating the reaction by the addition of 50 μL of a Candida NMT solution (7-12 ng/50 μL). Assays with human NMT were identical except that they used 60-75 ng/50 μL of enzyme solution and 0.22 nmoles of GNAASARR-NH2. The reaction was quenched after 10 minutes at 24° C. by the addition of ice-cold MeOH, and the reaction products were separated and measured using C4 reverse-phase HPLC (Vydac 214TP10415; Separations Group, Hesperia, Calif.) and in-line scintillation counting using a Radiomatic A250 (Packard Instruments, Downers Grove, Ill.) and Ecolite(+) (ICN Biomedical, Costa Mesa, Calif.) as the scintillant. Selectivity was determined by calculating the ratio of the IC50 against human NMT to the IC50 against C. albicans NMT.

[4] = test system: a variety of fungal species, including C. albicans; conditions: Sabouraud dextrose agar; series of n-alkoxyacetic acids; cited from earlier work
[5] = test system: HIV-1; conditions: acutely and chronically infected human T-lymphocyte cell lines, doses which do not cause cellular toxicity; cited from earlier work

Cc1nccn1CCCCc1ccc(C(C)C(=O)N[C@@H](CO)C(=O)N[C@@H](CCCCN)C(=O)N[C@@H](CC2CCCCC2)C(=O)O)cc1 (mixture of isomers) [Example 1, L-Alanine, 3-cyclohexyl-N-[N^2-[N-[2-[4-[4-(2-methyl-1H-imidazol-1-yl)butyl]phenyl]oxopropyl]-L-seryl]-L-lysyl]-, (±), bis-trifluoroacetate]
EC50 [1]: 33 µM
IC50 [2]: 850 µM
IC50 ([3]; Table V, read-out: IC50 caNMT): 0.4 µM
Selectivity ([3]; ratio of IC50 against human NMT to IC50 against C. albicans NMT): 2200

CCCCCCCCCCCOCC(=O)O [3-oxatetradecanoic acid]
effects on the growth of fungal species [4]: inhibiting growth

CCCCCCCCOCC(=O)O [3-oxaundecanoic acid]
effects on the growth of fungal species [4]: broadest spectrum and highest potency

COCCCCCCCCCCCC(=O)O [13-oxatetradecanoic acid]
inhibition of HIV-1 replication [5]: inhibits HIV-1 replication
